Test results: patent US10858335B2 (Rigel Pharmaceuticals, Inc., priority 2014, dated 2020)

The molecules below were run on GDF8 signaling (p-SMAD-3 (Ser423/425)) (assay: AlphaScreen SureFire SMAD3 (p-Ser423/425) assay, GDF8-stimulated cells (GDF pSMAD)). Conditions: MPC11; GDF8-stimulated; p-SMAD3 AlphaScreen; read-out: GDF pSMAD (MPC11) (inhibition of GDF8 signaling).
Assay type: cell-based

Nc1ncnc2ccc(-c3cccnc3-c3cc(Cl)c(F)cc3F)cc12 [compound 819, 6-(2-(5-Chloro-2,4-difluorophenyl)pyridin-3-yl)quinazolin-4-amine] was tested. Which IC50 did it give?
The IC50 was 0.119 µM.

With Cc1cc(-c2ncccc2-c2ccc3ncc(C(=O)NC4CC5CCC(C4)N5C)n3c2)ccc1F (stereo not drawn) [compound 712, exo-6-(2-(4-Fluoro-3-methylphenyl)pyridin-3-yl)-N-(8-methyl-8-azabicyclo[3.2.1]octan-3-yl)imidazo[1,2-a]pyridine-3-carboxamide] as the molecule, how does the IC50 read?
The IC50 was 4.06 µM.

Same assay, conditions: Mus musculus, MPC-11, GDF8-stimulated pSMAD3, MPC11; tested as the salt form given; read-out: GDF pSMAD (MPC11) (μM), inhibition of GDF8 signaling

Which IC50 does the source give for Nc1ncnc2ccc(-c3cccnc3-c3cccc(O)c3)cc12 [compound 977, 3-(3-(4-aminoquinazolin-6-yl)pyridin-2-yl)phenol] here?
Its IC50 is 1 µM.

COc1cnc(-c2cccc(O)c2)c(-c2ccc3ncnc(N)c3c2)c1 [compound 994, 3-(3-(4-aminoquinazolin-6-yl)-5-methoxypyridin-2-yl)phenol] was tested. Which IC50 did it give?
The IC50 was 3.21 µM.

For Cc1ccc(O)cc1-c1ncccc1-c1ccc2ncnc(N)c2c1 [compound 1005, 3-(3-(4-aminoquinazolin-6-yl)pyridin-2-yl)-4-methylphenol], which IC50 is on record?
Its IC50 is 5.45 µM.

For COc1ccc(Cl)c(-c2ncccc2-c2ccc3ncnc(N)c3c2)c1 [compound 1011, 6-(2-(2-chloro-5-methoxyphenyl)pyridin-3-yl)quinazolin-4-amine], which IC50 is on record?
Its IC50 is 3.33 µM.

Same assay, conditions: Mus musculus, MPC-11, MPC11; GDF8-stimulated; p-SMAD3 AlphaScreen; read-out: GDF pSMAD (MPC11) (inhibition of GDF8 signaling)

Cc1cc(-c2ncccc2-c2ccn3c(C(=O)NCCCN4CCOCC4)ncc3c2)ccc1F [compound 266, 7-(2-(4-Fluoro-3-methylphenyl)pyridin-3-yl)-N-(3-morpholinopropyl)imidazo[1,5-a]pyridine-3-carboxamide] was tested. Which IC50 did it give?
Its IC50 is 4.54 µM.

Which IC50 does the source give for Clc1ccc(Cl)c(-c2ncccc2-c2ccc3nccn3c2)c1 [compound 872, 6-(2-(2,5-Dichlorophenyl)pyridin-3-yl)imidazo[1,2-a]pyridine] here?
The IC50 was 0.775 µM.

How did the IC50 turn out when CS(=O)(=O)Nc1cccc(-c2ncccc2-c2ccc3[nH]ncc3c2)c1 [Compound 76, 5-(2-(3-Methylsulfphonylaminophenyl)pyridin-3-yl)-1H-indazole] was run?
Its IC50 is 1.81 µM.

For Cc1cnc2ccc(-c3cccnc3-c3cccc(C(F)(F)F)c3)cn12 [compound 530, 3-Methyl-6-(2-(3-(trifluoromethyl)phenyl)pyridin-3-yl)imidazo[1,2-a]pyridine], which IC50 is on record?
The IC50 was 0.625 µM.

CN(C)c1cnc2ccc(-c3cccnc3-c3cccc(C(F)(F)F)c3)cn12 [compound 554, N,N-Dimethyl-6-(2-(3-(trifluoromethyl)phenyl)pyridin-3-yl)imidazo[1,2-a]pyridin-3-amine] was tested. Which IC50 did it give?
The IC50 was 4.68 µM.

With Cc1cc(-c2ncccc2-c2ccn3c(C(=O)NCCCN4CCN(C)CC4)ncc3c2)ccc1F [compound 264, 7-(2-(4-Fluoro-3-methylphenyl)pyridin-3-yl)-N-(3-(4-methylpiperazin-1-yl)propyl)imidazo[1,5-a]pyridine-3-carboxamide] as the molecule, how does the IC50 read?
The IC50 was 9.15 µM.

With Fc1c(Cl)cccc1-c1ncccc1-c1ccc2ncnn2c1 [compound 772, 6-(2-(3-Chloro-2-fluorophenyl)pyridin-3-yl)-[1,2,4]triazolo[1,5-a]pyridine] as the molecule, how does the IC50 read?
Its IC50 is 4.95 µM.

Cc1cc(-c2ncccc2-c2ccc3ncn(CCN4CCOCC4)c3c2)ccc1F [Compound 35, 6-(2-(4-Fluoro-3-methylphenyl)pyridin-3-yl)-1-(2-morpholinoethyl)-1H-benzo[d]imidazole] was tested. Which IC50 did it give?
Its IC50 is 10.8 µM.

Which IC50 does the source give for Cc1cc(-c2ncccc2-c2ccc3ncnc(NC4CCCC4)c3c2)ccc1F [compound 405, N-Cyclopentyl-6-(2-(4-fluoro-3-methylphenyl)pyridin-3-yl)quinazolin-4-amine] here?
Its IC50 is 10.7 µM.

Which IC50 does the source give for Cc1ccc(Oc2ncnc3ccc(-c4cccnc4-c4ccc(F)c(Cl)c4)cc23)cn1 [compound 437, 6-(2-(3-Chloro-4-fluorophenyl)pyridin-3-yl)-4-((6-methylpyridin-3-yl)oxy)quinazoline] here?
The IC50 was 0.739 µM.

Which IC50 does the source give for Fc1ccc(-c2ncccc2-c2ccc3nccnc3c2)cc1Cl [compound 690, 6-(2-(3-Chloro-4-fluorophenyl)pyridin-3-yl)quinoxaline] here?
Its IC50 is 0.414 µM.

How did the IC50 turn out when Cc1cc(-c2ncccc2-c2ccc3ncc(C(=O)NCCO)n3c2)ccc1F [compound 705, 6-(2-(4-Fluoro-3-methylphenyl)pyridin-3-yl)-N-(2-hydroxyethyl)imidazo[1,2-a]pyridine-3-carboxamide] was run?
The IC50 was 0.122 µM.

For c1cc(-c2ncccc2-c2ccc3ncc(CN4CCOCC4)n3c2)cc(C2CC2)c1 [compound 571, 4-((6-(2-(3-Cyclopropylphenyl)pyridin-3-yl)imidazo[1,2-a]pyridin-3-yl)methyl)morpholine], which IC50 is on record?
Its IC50 is 7.31 µM.

For Cc1cccc(-c2ncccc2-c2ccc3ncn(C(C)C)c3c2)c1 [compound 47], which IC50 is on record?
Its IC50 is 8.23 µM.

COc1cccc(-c2ncccc2-c2ccc3ncnc(N)c3c2)c1 [compound 451, 6-(2-(3-Methoxyphenyl)pyridin-3-yl)quinazolin-4-amine] was tested. Which IC50 did it give?
Its IC50 is 0.115 µM.

How did the IC50 turn out when Fc1cc(F)c(-c2ncccc2-c2ccc3ncsc3c2)cc1Cl [compound 718, 6-(2-(5-Chloro-2,4-difluorophenyl)pyridin-3-yl)benzo[d]thiazole] was run?
The IC50 was 0.314 µM.

CCOC(=O)c1cnn2ccc(-c3cccnc3-c3ccc(F)c(Cl)c3)nc12 [compound 898, Ethyl 5-(2-(3-chloro-4-fluorophenyl)pyridin-3-yl)pyrazolo[1,5-a]pyrimidine-3-carboxylate] was tested. Which IC50 did it give?
Its IC50 is 0.714 µM.

Cc1cccc(-c2ncccc2-c2ccc3ncsc3n2)c1 [compound 304, 5-(2-(m-Tolyl)pyridin-3-yl)thiazolo[5,4-b]pyridine] was tested. Which IC50 did it give?
Its IC50 is 0.0853 µM.

With CN1CCC(NC(=O)c2cnc3ccc(-c4cccnc4-c4cccc(Cl)c4)cn23)CC1 [compound 708, 6-(2-(3-Chlorophenyl)pyridin-3-yl)-N-(1-methylpiperidin-4-yl)imidazo[1,2-a]pyridine-3-carboxamide] as the molecule, how does the IC50 read?
The IC50 was 0.266 µM.

With Cc1cc(-c2ncccc2-c2ccc3ncnc(NCc4cccnc4)c3c2)ccc1F [compound 416, 6-(2-(4-Fluoro-3-methylphenyl)pyridin-3-yl)-N-(pyridin-3-ylmethyl)quinazolin-4-amine] as the molecule, how does the IC50 read?
Its IC50 is 4.86 µM.

With Cc1cc(-c2ncccc2-c2ccc3ncnc(Nc4cccc(C(N)=O)c4)c3c2)ccc1F [compound 410, 3-((6-(2-(4-Fluoro-3-methylphenyl)pyridin-3-yl)quinazolin-4-yl)amino)benzamide] as the molecule, how does the IC50 read?
Its IC50 is 4.13 µM.

For Cc1cc(-c2ncccc2-c2ccc3ncc(C(=O)NCCCN)n3c2)ccc1F [compound 682, N-(3-Aminopropyl)-6-(2-(4-fluoro-3-methylphenyl)pyridin-3-yl)imidazo[1,2-a]pyridine-3-carboxamide], which IC50 is on record?
The IC50 was 0.539 µM.

With CC(=O)c1cnc2ccc(-c3cccnc3-c3cccc(Cl)c3)cn12 [compound 763, 1-(6-(2-(3-Chlorophenyl)pyridin-3-yl)imidazo[1,2-a]pyridin-3-yl)ethan-1-one] as the molecule, how does the IC50 read?
Its IC50 is 0.52 µM.

Which IC50 does the source give for COc1ccc(CNc2cnc(-c3ccc(F)c(C)c3)c(-c3ccc4ncsc4c3)c2)cc1OCC(N)=O [compound 352, 2-(5-(((5-(Benzo[d]thiazol-6-yl)-6-(4-fluoro-3-methylphenyl)pyridin-3-yl)amino)methyl)-2-methoxyphenoxy)acetamide] here?
The IC50 was 0.307 µM.

How did the IC50 turn out when CCCCNc1ncnc2ccc(-c3cccnc3-c3ccc(F)c(C)c3)cc12 [compound 403, N-Butyl-6-(2-(4-fluoro-3-methylphenyl)pyridin-3-yl)quinazolin-4-amine] was run?
Its IC50 is 1.67 µM.

For c1cc(-c2ncccc2-c2ccc3nccc(N4CCOCC4)c3c2)cc(C2CC2)c1 [compound 549, 4-(6-(2-(3-Cyclopropylphenyl)pyridin-3-yl)quinolin-4-yl)morpholine], which IC50 is on record?
The IC50 was 5.01 µM.

With Cc1cc(-c2ncc(N3CCN(C)CC3)cc2-c2ccc3ncsc3c2)ccc1F [compound 319, 6-(2-(4-Fluoro-3-methylphenyl)-5-(4-methylpiperazin-1-yl)pyridin-3-yl)benzo[d]thiazole] as the molecule, how does the IC50 read?
Its IC50 is 10.6 µM.

Which IC50 does the source give for Cc1c(-c2cccnc2-c2cc(Cl)c(F)cc2F)ccc2ncnn12 [compound 813, 6-(2-(5-Chloro-2,4-difluorophenyl)pyridin-3-yl)-5-methyl-[1,2,4]triazolo[1,5-a]pyridine] here?
Its IC50 is 2.43 µM.

Which IC50 does the source give for Cc1cc(-c2ncccc2-c2ccc3ncn(CCN4CCN(C)CC4)c3c2)ccc1F [Compound 37, 6-(2-(4-Fluoro-3-methylphenyl)pyridin-3-yl)-1-(2-(4-methylpiperazin-1-yl)ethyl)-1H-benzo[d]imidazole] here?
Its IC50 is 18.1 µM.

For Cc1cc(-c2ncccc2-c2cc3cn[nH]c3cc2C)ccc1F [Compound 173, 5-(2-(4-Fluoro-3-methylphenyl)pyridin-3-yl)-6-methyl-1H-indazole], which IC50 is on record?
Its IC50 is 1.83 µM.

How did the IC50 turn out when CCCNC(=O)c1cnc2ccc(-c3cccnc3-c3ccc(F)c(C)c3)cn12 [compound 583, 6-(2-(4-Fluoro-3-methylphenyl)pyridin-3-yl)-N-propylimidazo[1,2-a]pyridine-3-carboxamide] was run?
The IC50 was 0.518 µM.

With Cc1ccc(F)c(-c2ncccc2-c2ccc3ncnn3c2)c1 [compound 748, 6-(2-(2-Fluoro-5-methylphenyl)pyridin-3-yl)-[1,2,4]triazolo[1,5-a]pyridine] as the molecule, how does the IC50 read?
Its IC50 is 0.447 µM.

Which IC50 does the source give for Fc1cnc(-c2ccc(F)c(Cl)c2)c(-c2ccn3ncnc3c2)c1 [compound 860, 7-(2-(3-Chloro-4-fluorophenyl)-5-fluoropyridin-3-yl)-[1,2,4]triazolo[1,5-a]pyridine] here?
The IC50 was 9.98 µM.

Cc1cc(-c2ncccc2-c2ccc3nccn3n2)ccc1F [compound 934, 6-(2-(4-Fluoro-3-methylphenyl)pyridin-3-yl)imidazo[1,2-b]pyridazine] was tested. Which IC50 did it give?
The IC50 was 0.41 µM.

How did the IC50 turn out when Cc1cc(-c2ncccc2-c2ccn3ncc(C(=O)N[C@@H]4CN5CCC4CC5)c3c2)ccc1F [compound 792, (S)-5-(2-(4-Fluoro-3-methylphenyl)pyridin-3-yl)-N-(quinuclidin-3-yl)pyrazolo[1,5-a]pyridine-3-carboxamide] was run?
Its IC50 is 2.43 µM.

CC(C)Nc1ncnc2ccc(-c3cccnc3-c3ccc(F)c(Cl)c3)cc12 [compound 401, 6-(2-(3-Chloro-4-fluorophenyl)pyridin-3-yl)-N-isopropylquinazolin-4-amine] was tested. Which IC50 did it give?
The IC50 was 5.89 µM.
